One series has as its target T1, CDK5/GST-p25 (Homo sapiens, UniProt Q00535).
T1 construct: The final construct, encoding for full-length human CDK5; made in house; host or cells: Sf21 insect cells (baculovirus co-infection)
In words: Inhibition of CDK5/GST-p25 kinase activity (ELISA with time-resolved fluorescence readout). In kind it is biochemical. Summed up:
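Sf21-coexpressed full-length human CDK5 with GST-p25 (p35 aa 108-307), glutathione-purified, at 2 ng/ml was reacted for 20 min at 37 °C on plate-coated GST-Rb(773-928). Buffer was 20 mM HEPES pH 7.2, 10 µM ATP, 10 mM MgCl2 and 2.5% DMSO. Phospho-Rb Ser-780 was detected by Eu-labelled antibody TRF, and IC50 curves were fitted.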

Another series deals with T2, His6-GSK-3β (Homo sapiens, UniProt P49841).
T2 construct: made in house; host or cells: Sf21 insect cells (baculovirus)
Kind of series: Inhibition of His6-GSK-3β kinase activity (ELISA-based format, time-resolved fluorescence readout). The series is classed as biochemical. Particulars: read-out: GSK3β IC50. In a few lines:
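N-terminal His6-tagged full-length human GSK-3β (aa 2-419) expressed in Sf21 cells, 200 ng/ml, phosphorylating plate-coated GST-Rb with 20 μM ATP in pH 7.2 HEPES buffer, 30 min at 37° C. Phospho-Rb (Ser-780) detected by antibody plus Eu-labelled secondary, time-resolved fluorescence; IC50 from curves.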
For orientation: ELISA stands for enzyme-linked immunosorbent assay.

Each structure is given as a SMILES string. Read-outs that look alike come from different tables or passages of the source.

Among the data in patent publication US8354414B2, “Substituted bicyclic pyrimidines” (Cephalon, Inc, priority 2006, dated 2013) are melting point, IC50 and inhibition values, retold here.

T2 sequence (P49841 2-419): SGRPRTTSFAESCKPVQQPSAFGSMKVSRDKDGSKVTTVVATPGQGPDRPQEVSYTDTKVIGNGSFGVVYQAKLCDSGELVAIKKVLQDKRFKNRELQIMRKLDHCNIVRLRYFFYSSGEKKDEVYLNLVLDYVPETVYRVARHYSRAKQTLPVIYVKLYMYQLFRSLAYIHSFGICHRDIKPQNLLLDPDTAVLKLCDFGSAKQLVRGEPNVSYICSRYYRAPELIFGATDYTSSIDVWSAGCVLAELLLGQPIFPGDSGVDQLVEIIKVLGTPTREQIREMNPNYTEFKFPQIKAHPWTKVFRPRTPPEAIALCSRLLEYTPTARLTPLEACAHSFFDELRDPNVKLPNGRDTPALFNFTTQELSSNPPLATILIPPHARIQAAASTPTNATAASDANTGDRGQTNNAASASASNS
T1 sequence (Q00535 whole entry): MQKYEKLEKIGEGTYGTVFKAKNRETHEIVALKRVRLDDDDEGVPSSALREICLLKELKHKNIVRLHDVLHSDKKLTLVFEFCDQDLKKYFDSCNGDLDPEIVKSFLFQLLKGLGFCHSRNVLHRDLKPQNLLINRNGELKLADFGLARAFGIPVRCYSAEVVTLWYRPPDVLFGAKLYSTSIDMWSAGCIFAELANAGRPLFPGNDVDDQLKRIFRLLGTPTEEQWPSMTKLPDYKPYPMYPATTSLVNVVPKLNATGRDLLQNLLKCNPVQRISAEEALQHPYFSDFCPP
T1 sequence (Q15078 108-307 partner limits assumed): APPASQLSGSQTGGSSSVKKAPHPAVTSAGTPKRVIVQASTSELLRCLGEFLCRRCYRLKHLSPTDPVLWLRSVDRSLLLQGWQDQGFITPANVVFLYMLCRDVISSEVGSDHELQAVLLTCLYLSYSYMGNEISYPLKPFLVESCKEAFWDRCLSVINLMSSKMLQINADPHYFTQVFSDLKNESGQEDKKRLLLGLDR

Broadly, the melting point is the temperature of the solid-liquid transition. The IC50 is the concentration at which inhibition is half-maximal. On to `CCOCCn1cc2c(C3C(=O)Nc4ccc(Cl)cc43)nc(NCCN(C)C)nc2n1` (stereo not drawn) [Example 216, 5-Chloro-3-[6-(2-dimethylamino-ethylamino)-2-(2-ethoxy-ethyl)-2H-pyrazolo[3,4-d]pyrimidin-4-yl]-1,3-dihydro-indol-2-one], for which the melting point fell in the range of 293 to 295 °C. The compound further showed an IC50 on CDK5/GST-p25 (class symbols) of 300 to 3000 nM. Besides, the IC50 at His6-GSK-3β (class symbols) is 300 to 3000 nM.
On to `O=C1Nc2ccc(Cl)cc2C1c1ncnc2nn(C3CCCC3)cc12` (stereo not drawn) [Example 36, 5-Chloro-3-(2-Cyclopentyl-2H-pyrazolo [3,4-d]pyrimidin-4-yl)-2-oxo-1,3-dihydro-indol-2-one], for which the melting point is 290 to 292 °C. This compound also displayed an IC50 against CDK5/GST-p25 (class symbols) of less than 300 nM. Moreover, on His6-GSK-3β (class symbols), the IC50 was less than 300 nM.
Compound `O=C1Nc2ccccc2C1c1nc(NCCc2cccnc2)nc2nn(C3CCCC3)cc12` (stereo not drawn) [Example 155, 3-[2-cyclopentyl-6-(2-pyridin-3-yl-ethylamino)-2H-pyrazolo [3,4-d]pyrimidin-4-yl]-1,3-dihydro-indol-2-one] displayed a melting point of 258 to 260 °C. In addition, the concentration for half-maximal inhibition (IC50) against CDK5/GST-p25 (numeric bounds) was more than 1000 nM. Further, the IC50 at His6-GSK-3β (class symbols) was 300 to 3000 nM.
`O=C1Nc2c(cc([N+](=O)[O-])cc2[N+](=O)[O-])C1c1ncnc2c1cnn2C1CCCC1` (stereo not drawn) [Example 60, 3-(1-cyclopentyl-1H-pyrazolo[3,4-d]pyrimidin-4-yl)-5,7-dinitro-1,3-dihydro-indol-2-one] showed a melting point of 242 to 246 °C. This compound also came in with an IC50 at CDK5/GST-p25 (class symbols) of more than 10000 nM. For the same compound, at His6-GSK-3β (class symbols), the IC50 was more than 10000 nM.
Compound `CCOCCn1cc2c(C3C(=O)Nc4ccc(Cl)cc43)nc(NC[C@@H](C)O)nc2n1` (stereo partly drawn) [Example 218, 5-Chloro-3-[2-(2-ethoxy-ethyl)-6-((R)-2-hydroxy-propylamino)-2H-pyrazolo[3,4-d]pyrimidin-4-yl]-1,3-dihydro-indol-2-one] yielded a melting point of more than 300 °C. Besides, on CDK5/GST-p25 (class symbols), the half-inhibitory concentration (IC50) was less than 300 nM. Moreover, on His6-GSK-3β (class symbols), the IC50 was less than 300 nM.
What is called inhibition is the share of the control response that was lost under treatment. On to `C[C@H](O)CNc1nc(C2C(=O)Nc3ccc(Cl)cc32)c2cn(C3CCCC3)nc2n1` (stereo partly drawn) [Example 374], for which the melting point was more than 300 °C. On CDK5/GST-p25, this compound had an inhibition at 10 µM of 56%. Besides, the half-maximal inhibitory concentration (IC50) on His6-GSK-3β (class symbols) was less than 300 nM.
For `CC(C)CNc1nc(C2C(=O)Nc3ccccc32)c2cn(C3CCCC3)nc2n1` (stereo not drawn) [Example 244, 3-(2-Cyclopentyl-6-isobutylamino-2H-pyrazolo[3,4-d]pyrimidin-4-yl)-1,3-dihydro-indol-2-one], the melting point lay in the range of 280 to 282 °C. The compound further registered an IC50 against CDK5/GST-p25 (class symbols) of more than 10000 nM. At His6-GSK-3β (numeric bounds), the IC50 is more than 1000 nM.
The compound `O=C1Nc2ccc(F)cc2C1c1ncnc2c1cnn2C1CCCCC1` (stereo not drawn) [Example 72, 3-(1-Cyclohexyl-1H-pyrazolo[3,4-d]pyrimidin-4-yl)-5-fluoro-1,3-dihydro-indol-2-one] gave a melting point of 282 to 286 °C. This compound also displayed a half-maximal inhibitory concentration (IC50) at CDK5/GST-p25 (class symbols) of more than 10000 nM. In addition, the IC50 on His6-GSK-3β (class symbols) is more than 10000 nM.
`C=CCNc1nc(C2C(=O)Nc3ccc(C#N)cc32)c2cn(CCCCC)nc2n1` (stereo not drawn) [Example 293, 3-(6-Allylamino-2-pentyl-2H-pyrazolo[3,4-d]pyrimidin-4-yl)-2-oxo-2,3-dihydro-1H-indole-5-carbonitrile]: the melting point is 265 °C (dec.). Moreover, the IC50 against CDK5/GST-p25 (class symbols) was less than 300 nM. The IC50 on His6-GSK-3β (class symbols) is less than 300 nM.
As to `COCCn1cc2c(C3C(=O)Nc4ccc(Br)cc43)nc(NC[C@@H](C)O)nc2n1` (stereo partly drawn) [Example 231, 5-Bromo-3-[6-((R)-2-hydroxy-propylamino)-2-(2-methoxy-ethyl)-2H-pyrazolo[3,4-d]pyrimidin-4-yl]-1,3-dihydro-indol-2-one], the melting point was more than 300 °C. At CDK5/GST-p25 (class symbols), this compound registered a half-inhibitory concentration (IC50) of less than 300 nM. The IC50 on His6-GSK-3β (class symbols) was less than 300 nM.
In turn, `C[C@@H](O)CNc1nc(C2C(=O)Nc3ccc(Cl)cc32)c2cn(C3CCCC3)nc2n1` (stereo partly drawn) [Example 375] returned a melting point of more than 300 °C. On CDK5/GST-p25, this compound registered an inhibition at 10 µM of 62%. The IC50 on His6-GSK-3β (class symbols) was less than 300 nM.
As for `CC(=O)NCCNc1nc(C2C(=O)Nc3ccc(C#N)cc32)c2cn(C3CCCC3)nc2n1` (stereo not drawn) [Example 151, 3-(6-(2-acetylamino-ethylamino)-2-cyclopentyl-2H-pyrazolo [3,4-d]pyrimidin-4-yl)-2-oxo-2,3-dihydro-1H-indole-5-carbonitrile], the melting point was more than 300 °C. In addition, the 50% inhibitory concentration (IC50) on CDK5/GST-p25 (class symbols) was less than 300 nM. In addition, the IC50 on His6-GSK-3β (class symbols) was less than 300 nM.
Consider `O=C1Nc2ccc(F)c(F)c2C1c1ncnc2nn(C3CCCC3)cc12` (stereo not drawn) [Example 42, 3-(2-Cyclopentyl-2H-pyrazolo[3,4-d]pyrimidin-4-yl)-4,5-difluoro-1,3-dihydro-indol-2-one], for which the melting point fell in the range of 280 to 284 °C. The same compound returned a half-inhibitory concentration (IC50) against CDK5/GST-p25 (class symbols) of 300 to 3000 nM. In addition, the IC50 on His6-GSK-3β (class symbols) lay within 300 to 3000 nM.
With `O=C1Nc2ccc(Cl)cc2C1c1ncnc2c1cnn2C1CCCC1` (stereo not drawn) [Example 58, 5-Chloro-3-(1-cyclopentyl-1H-pyrazolo[3,4-d]pyrimidin-4-yl)-1,3-dihydro-indol-2-one], the melting point lay within 304 to 306 °C. Also, the 50% inhibitory concentration (IC50) at CDK5/GST-p25 (class symbols) is more than 10000 nM. In addition, on His6-GSK-3β (numeric bounds), the 50% inhibitory concentration (IC50) is more than 3000 nM.
As to `O=C1Nc2ccc(C(F)(F)F)cc2C1c1nc(NCc2cccnc2)nc2nn(C3CCCC3)cc12` (stereo not drawn) [Example 161, 3-{2-cyclopentyl-6-[(pyridin-3-ylmethyl)-amino]-2H-pyrazolo [3,4-d]pyrimidin-4-yl}-5-trifluoromethyl-1,3-dihydro-indol-2-one], the melting point was more than 300 °C. The same compound gave an inhibition at 10 µM against CDK5/GST-p25 of 68%. Besides, the IC50 at His6-GSK-3β (class symbols) was less than 300 nM.
Take `CC(C)n1cc2c(C3C(=O)Nc4ccc(C#N)cc43)ncnc2n1` (stereo not drawn) [Example 382, 3-(2-Isopropyl-2H-pyrazolo[3,4-d]pyrimidin-4-yl)-2-oxo-2,3-dihydro-1H-indole-5-carbonitrile]: the melting point was more than 300 °C. The IC50 against CDK5/GST-p25 (class symbols) was less than 300 nM. Further, the IC50 at His6-GSK-3β (class symbols) is 300 to 3000 nM.
The like results for `N#Cc1cccc2c1NC(=O)C2c1ncnc2c1cnn2C1CCCCC1` (stereo not drawn) [Example 70, 3-(1-Cyclohexyl-1H-pyrazolo [3,4-d]pyrimidin-4-yl)-2-oxo-2,3-dihydro-1H-indole-7-carbonitrile] were, in that order, more than 300 °C, more than 10000 nM and more than 10000 nM.
For `CCCn1cc2c(C3C(=O)Nc4ccc(Br)cc43)ncnc2n1` (stereo not drawn) [Example 97, 5-Bromo-3-(2-propyl-2H-pyrazolo[3,4-d]pyrimidin-4-yl)-1,3-dihydro-indol-2-one], in that order: more than 300 °C, less than 300 nM and less than 300 nM.
The like results for `O=C1Nc2ccc(F)cc2C1c1ncnc2c1cnn2C1CCCC1` (stereo not drawn) [Example 65, 3-(1-Cyclopentyl-1H-pyrazolo[3,4-d]pyrimidin-4-yl)-5-fluoro-1,3-dihydro-indol-2-one] were, in that order, 254 to 257 °C, more than 10000 nM and more than 10000 nM.
Turning to `O=C1Nc2ccc(F)c(F)c2C1c1ncnc2c1cnn2C1CCCC1` (stereo not drawn) [Example 67, 3-(1-Cyclopentyl-1H-pyrazolo[3,4-d]pyrimidin-4-yl)-4,5-difluoro-1,3-dihydro-indol-2-one], the melting point was more than 300 °C. Also, the IC50 against CDK5/GST-p25 (class symbols) is more than 10000 nM. The 50% inhibitory concentration (IC50) at His6-GSK-3β (class symbols) was more than 10000 nM.
